These results are taken from US4575498A, “Method for restoring depleted purine nucleotide pools” (priority 1983, dated 1986).

“Also recorded” adds a separate entry of the source.

Data set [1] addresses T1, adenylosuccinate lyase (skeletal muscle) (Mus musculus, UniProt P54822).
T1 construct: the hearts and gastrocnemius muscles were excised, weighed, and homogenized to a slurry; from tissue; host or cells: gastrocnemius (skeletal) muscle of six-week-old C57BL/6J mice; dialyzed 10,000×g supernatant
T1 sequence (P54822 2-484 limits assumed): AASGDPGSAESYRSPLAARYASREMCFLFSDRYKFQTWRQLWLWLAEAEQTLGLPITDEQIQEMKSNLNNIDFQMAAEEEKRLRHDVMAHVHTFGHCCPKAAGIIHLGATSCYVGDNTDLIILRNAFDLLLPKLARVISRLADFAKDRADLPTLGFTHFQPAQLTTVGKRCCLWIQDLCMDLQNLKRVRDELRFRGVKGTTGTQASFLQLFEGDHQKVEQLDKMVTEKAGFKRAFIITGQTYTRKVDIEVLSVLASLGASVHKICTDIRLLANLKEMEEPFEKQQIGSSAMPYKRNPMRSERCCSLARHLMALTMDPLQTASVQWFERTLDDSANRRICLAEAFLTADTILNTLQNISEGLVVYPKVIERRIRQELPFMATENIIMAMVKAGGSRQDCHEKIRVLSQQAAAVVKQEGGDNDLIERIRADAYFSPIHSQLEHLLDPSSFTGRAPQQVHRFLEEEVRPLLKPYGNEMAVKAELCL
Briefly: Assay of adenylosuccinate lyase, skeletal muscle enzyme. The data set is classed as biochemical, C57BL/6J mice. As to the method: (§1) Preparation and Assay of Adenylosuccinate Lyase--Six-week-old C57BL/6J mice were killed, and the hearts and gastrocnemius muscles were excised, weighed, and homogenized to a slurry in 4 volumes of 50 mM Tris-HCl, pH 7.4 at 25° C. containing 1 mM EDTA and 1 mM β-mercaptoethanol in a TenBroeck glass homogenizer. The homogenate was centrifuged at 10,000×g for 15 min and the supernatant was dialyzed against 1,000 volumes of the extraction buffer for 2 h at 4° C. The lyase activity was partially stabilized by the addition of EDTA and β-mercaptoethanol, but some activity was lost even on storage at -70° C.
(§2) The assays were carried out at pH 7.4 were reaction mixtures that contained 50 mM Tris-HCl buffer, 1 mM EDTA, 1 mM β-mercaptoethanol, 20 μM adenylosuccinate, and the enzyme extract (protein concentration, 0.13-0.20 mg/ml). The decrease in absorbance at 280 nm was measured using a Gilford recording spectrophotometer. All assays were done at 25° C. and were linear with respect to time of incubation and with the amount of protein in extract added to the assay.
(§3) These are average values for experiments with 4 separate enzyme preparations. The experimental points in the double reciprocal plots were fitted to the best line by the method of least squares with all points being weighted equally.

Data set [2] concerns the target T2, adenylosuccinate lyase (cardiac muscle) (Mus musculus, UniProt P54822).
T2 construct: the hearts and gastrocnemius muscles were excised, weighed, and homogenized to a slurry; from tissue; host or cells: heart of six-week-old C57BL/6J mice; dialyzed 10,000×g supernatant
T2 sequence (P54822 2-484 limits assumed): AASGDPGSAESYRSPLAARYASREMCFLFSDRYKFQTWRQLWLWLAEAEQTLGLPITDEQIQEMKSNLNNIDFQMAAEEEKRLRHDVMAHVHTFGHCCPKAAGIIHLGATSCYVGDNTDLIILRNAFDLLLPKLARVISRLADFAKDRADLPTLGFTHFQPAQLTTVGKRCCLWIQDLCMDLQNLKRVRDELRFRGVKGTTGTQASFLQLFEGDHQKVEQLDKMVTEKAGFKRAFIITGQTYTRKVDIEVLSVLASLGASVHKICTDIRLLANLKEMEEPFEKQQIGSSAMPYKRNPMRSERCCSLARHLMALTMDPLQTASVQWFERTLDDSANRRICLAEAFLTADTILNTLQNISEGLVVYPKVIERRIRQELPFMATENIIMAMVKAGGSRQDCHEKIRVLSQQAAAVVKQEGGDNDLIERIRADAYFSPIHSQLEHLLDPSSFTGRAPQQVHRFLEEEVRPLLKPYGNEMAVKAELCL
Briefly: Assay of adenylosuccinate lyase, cardiac enzyme. Type of data set: biochemical, C57BL/6J mice. As to the method:
as §1, §2, §3

The test system of data set [3] is cardiovascular system. Particulars: prior art statement; cited from earlier work.
Substrate in data set [4]: O=C(O)C[C@H](Nc1ncnc2c1ncn2[C@@H]1O[C@H](COP(=O)(O)O)[C@@H](O)[C@H]1O)C(=O)O
Kind of data set: Assay of adenylosuccinate lyase, cardiac enzyme. Type of data set: biochemical, C57BL/6J mice. The conditions noted are these: other: cardiac muscle enzyme, pH 7.4, 25° C., 4 enzyme preparations. The procedure: as §1, §2, §3

Substrate in data set [5]: O=C(O)C[C@H](Nc1ncnc2c1ncn2[C@@H]1O[C@H](COP(=O)(O)O)[C@@H](O)[C@H]1O)C(=O)O
Kind of data set: Assay of adenylosuccinate lyase, skeletal muscle enzyme. Type of data set: biochemical, C57BL/6J mice. Particulars: other: skeletal muscle enzyme, pH 7.4, 25° C., 4 enzyme preparations. The procedure: as §1, §2, §3

In general, Ki refers to the dissociation constant of the complex between target and ligand, obtained from inhibition or displacement. A low value points to higher affinity. Regarding `NC(=O)c1ncn([C@@H]2O[C@H](COP(=O)(O)O)[C@@H](O)[C@H]2O)c1N` [AICAR, 5-Amino-4-imidazolecarboxamide Ribotide], the Ki in data set [1] worked out at 7.6 ± 3.2 µM; in data set [2], 4.5 ± 1.7 µM. Also, the “maximal AICAR concentration exceeding Ki of adenylosuccinate lyase” value was 18 fold in data set [1] (skeletal muscle) and 180 fold in data set [2] (cardiac muscle).
Take `Nc1ncnc2c1ncn2[C@@H]1O[C@H](CO)[C@@H](O)[C@H]1O` [adenosine]: the hemodynamic effects entry in data set [3] is given as “profound changes in the hemodynamic status; also recorded: deleterious hemodynamic effects”.
For the molecule `O=c1[nH]cnc2nc[nH]c12` [hypoxanthine], the hemodynamic effects entry in data set [3] is on record as “deleterious hemodynamic effects”.
Take `OC[C@H]1O[C@@H](n2cnc3c(O)ncnc32)[C@H](O)[C@@H]1O` [inosine]: in data set [3], the hemodynamic effects result is recorded as “deleterious hemodynamic effects”.

B1: adenylosuccinate lyase (cardiac muscle) (Mus musculus) (protein)
chain: AASGDPGSAESYRSPLAARYASREMCFLFSDRYKFQTWRQLWLWLAEAEQTLGLPITDEQIQEMKSNLNNIDFQMAAEEEKRLRHDVMAHVHTFGHCCPKAAGIIHLGATSCYVGDNTDLIILRNAFDLLLPKLARVISRLADFAKDRADLPTLGFTHFQPAQLTTVGKRCCLWIQDLCMDLQNLKRVRDELRFRGVKGTTGTQASFLQLFEGDHQKVEQLDKMVTEKAGFKRAFIITGQTYTRKVDIEVLSVLASLGASVHKICTDIRLLANLKEMEEPFEKQQIGSSAMPYKRNPMRSERCCSLARHLMALTMDPLQTASVQWFERTLDDSANRRICLAEAFLTADTILNTLQNISEGLVVYPKVIERRIRQELPFMATENIIMAMVKAGGSRQDCHEKIRVLSQQAAAVVKQEGGDNDLIERIRADAYFSPIHSQLEHLLDPSSFTGRAPQQVHRFLEEEVRPLLKPYGNEMAVKAELCL
notes: the hearts and gastrocnemius muscles were excised, weighed, and homogenized to a slurry; from tissue; host or cells: heart of six-week-old C57BL/6J mice; dialyzed 10,000×g supernatant
The term Km denotes the substrate concentration at which the rate is half of its maximum. For B1, the Michaelis-Menten constant (Km) in data set [4] was 2.2 ± 0.3 µM.

B2: adenylosuccinate lyase (skeletal muscle) (Mus musculus) (protein)
chain: AASGDPGSAESYRSPLAARYASREMCFLFSDRYKFQTWRQLWLWLAEAEQTLGLPITDEQIQEMKSNLNNIDFQMAAEEEKRLRHDVMAHVHTFGHCCPKAAGIIHLGATSCYVGDNTDLIILRNAFDLLLPKLARVISRLADFAKDRADLPTLGFTHFQPAQLTTVGKRCCLWIQDLCMDLQNLKRVRDELRFRGVKGTTGTQASFLQLFEGDHQKVEQLDKMVTEKAGFKRAFIITGQTYTRKVDIEVLSVLASLGASVHKICTDIRLLANLKEMEEPFEKQQIGSSAMPYKRNPMRSERCCSLARHLMALTMDPLQTASVQWFERTLDDSANRRICLAEAFLTADTILNTLQNISEGLVVYPKVIERRIRQELPFMATENIIMAMVKAGGSRQDCHEKIRVLSQQAAAVVKQEGGDNDLIERIRADAYFSPIHSQLEHLLDPSSFTGRAPQQVHRFLEEEVRPLLKPYGNEMAVKAELCL
notes: the hearts and gastrocnemius muscles were excised, weighed, and homogenized to a slurry; from tissue; host or cells: gastrocnemius (skeletal) muscle of six-week-old C57BL/6J mice; dialyzed 10,000×g supernatant
In the case of B2, the Km in data set [5] was found to be 4.5 ± 1.5 µM.
